For this test, the system named is male Hartley guinea pigs actively sensitized with egg-white albumin. The test is described as follows: Antiallergic Test due to Antigen-Induced Immediate Type Airway Reaction and Delayed Type Airway Reaction. It counts as in vivo. The settings on record: Cavia porcellus, po, 10 mg/kg orally once one hour before induction (prednisolone 10 mg/kg orally twice, 16 hours and 2 hours before). The protocol: Using an ultrasonic nebulizer (NE-U12, manufactured by OMRON Corporation), male Hartley guinea pigs (aged six weeks) were actively sensitized by consecutive 8-day inhalation of a 1 wt % physiological saline of egg-white albumin for 10 minutes a day. After one week passed since the final sensitization, an asthmatic disease state was induced by inhalation of a 2 wt % physiological saline of egg-white albumin for 5 minutes in the same manner. To inhibit the synthesis of endogenous steroid, metyrapone (10 mg/kg) was intravenously administered at 24 hours and one hour before the induction. To inhibit anaphylactic shock, pyrilamine (10 mg/kg) was intraperitoneally administered 30 minutes before inducing the asthmatic reaction.
After inducing the asthmatic reaction, the airway resistance (specific airway resistance Raw) was measured for 1 minute before inducing the asthmatic reaction, and 1 minute, 2 hours, 4 hours, 5 hours, 6 hours, 7 hours, 8 hours, and 23-24 hours after inducing the asthmatic reaction, using an airway resistance measuring apparatus (Pulmos-I, manufactured by M.I.P.S.). An average value of the airway resistance was determined, and an airway resistance increase ratio with respect to the value of the airway resistance before the induction was calculated by the following Equation 1.
Each of the test substances (10 mg/kg) listed in Table 1 was suspended in an aqueous 0.5% methyl cellulose solution, and the suspension was orally administered once one hour before inducing the asthmatic reaction. A positive control substance (prednisolone) was orally administered twice at a dosage of 10 mg/kg 16 hours and 2 hours before inducing the asthmatic reaction. The test was carried out on 8 animals per group.
According to this test procedure, a two-phase increase in airway resistance was observed immediately after inducing the asthmatic reaction and after 4-8 hours passed since inducing the asthmatic reaction. In the present invention, the former increase in airway resistance is referred to as the immediate type asthmatic reaction, while the latter increase in airway resistance is referred to as the delayed type asthmatic reaction. With respect to the evaluation of the drug, for the immediate type asthmatic reaction, the inhibition percentage with respect to the asthmatic reaction inhibiting medium administration group (referring to the group wherein a test drug is not administered after inducing the asthmatic reaction, hereinafter merely referred to as the “medium administration group”) was determined by Equation 2 using the airway resistance increase ratio after one minute gas passed since the induction as an index.
For the delayed type asthmatic reaction, the inhibition percentage with respect to the medium administration group was determined by the following Equation 3 using the area under the curve (AUC4-8) of the airway resistance increase ratio up to 4-8 hours after inducing the asthmatic reaction as an index. As an example, the relationship between the airway resistance increase ratio up to 4-8 hours after inducing the asthmatic reaction of the delayed type asthmatic reaction and time in the medium administration group, the prednisolone administration group, and the compound (216) administration group is shown in FIG. 1. As used herein, the area under the curve showing the relationship between the airway resistance increase ratio and time is (AUC4-8)
Airway resistance increase ratio (%)=(airway resistance after inducing the asthmatic airway resistance−airway resistance before inducing the asthmatic reaction)/(airway resistance before inducing the asthmatic reaction)×100
Inhibition (%)=(1−airway resistance increase ratio after one minute has passed since inducing the asthmatic reaction of the test substance administration group/airway resistance increase ratio after one minute has passed since inducing the asthmatic reaction of the medium administration group)×100 […]

Setting [1] is: 1 min, airway resistance increase ratio one minute after induction vs medium administration group, read-out: Inhibition (%) against immediate type allergy.
Where [2] appears, read: AUC4-8 of airway resistance increase ratio 4-8 hours after induction vs medium administration group, read-out: Inhibition (%) against delayed type allergy.

The structures appear in SMILES notation. Where two headings read alike, the source gives them in different places.

On to `C[C@]12C=CC(=O)C=C1CC[C@@H]1[C@@H]2[C@@H](O)C[C@@]2(C)[C@H]1CC[C@]2(O)C(=O)CO` [Prednisolone, prednisolone, reference compound], for which the inhibition in vivo at 10 mg/kg runs as follows: under setting [1], 29%; under setting [2], 51.4%.
The like results for `CCCCCCCCCCOc1ccc2c(O)c(OC)c(=O)oc2c1` [Comparative Compound (2), 3-methoxy-4-hydroxy-7-decyloxy-2H-1-benzopyran-2-one, reference compound] were, in that order, 6.5% and 20.2%.
For `CC(C)=CCC/C(C)=C/COc1c(O)c2c(OCC(=O)O)cccc2oc1=O` [Compound (81), 3-geranyloxy-4-hydroxy-5-hydroxycarbonylmethoxy-2H-1-benzopyran-2-one], in that order: 15.4% and 54.1%.
As to `COc1ccc2c(O)c([C@@H]3O[C@H](CO)[C@@H](O)[C@H](O)[C@H]3O)c(=O)oc2c1` [Comparative Compound (4), 7-methoxy-4-hydroxy-3-(β-D-glucopyranosyl)-2H-1-benzopyran-2-one, reference compound], the inhibition in vivo at 10 mg/kg is 4.7% under setting [1] and 20.5% under setting [2].
Regarding `CCOc1c(O)c2cc(OCCCCO)ccc2oc1=O` [Compound (137), 3-ethoxy-4-hydroxy-6-(4-hydroxybutoxy)-2H-1-benzopyran-2-one], the inhibition in vivo at 10 mg/kg under setting [1] stood at 8.3% and the inhibition in vivo at 10 mg/kg under setting [2] was 58.9%.
For `CCCCCCOc1c(O)c(=O)oc2cc([C@@H]3O[C@H](CO)[C@@H](O)[C@H](O)[C@H]3O)ccc12` [Comparative Compound (6), 3-hydroxy-4-hexyloxy-7-(β-D-glucopyranosyl)-2H-1-benzopyran-2-one, reference compound], in that order: 5.9% and 24.1%.
The like results for `CCCCCCCCOc1c(O)c2ccc(OCC(O)CO)cc2oc1=O` (stereo not drawn) [Compound (249), 3-octyloxy-4-hydroxy-7-(2,3-dihydroxypropyloxy)-2H-1-benzopyran-2-one] were, in that order, 28.8% and 63.4%.
For `CCCCCCOc1c(O)c2ccc(OCCO)cc2oc1=O` [Compound (210), 3-hexyloxy-4-hydroxy-7-(2-hydroxyethoxy)-2H-1-benzopyran-2-one], in that order: 14.2% and 71.4%.
Turning to `CCCCOc1ccc2c([C@@H]3O[C@H](CO)[C@@H](O)[C@H](O)[C@H]3O)c(O)c(=O)oc2c1` [Comparative Compound (5), 7-butoxy-3-hydroxy-4-(β-D-glucopyranosyl)-2H-1-benzopyran-2-one, reference compound], the inhibition in vivo at 10 mg/kg was 6.8% under setting [1] and 22.4% under setting [2].
Take `CCCCCCOc1c(O)c2cc(OCC(=O)O)ccc2oc1=O` [Compound (166), 3-hexyloxy-4-hydroxy-6-hydroxycarbonylmethoxy-2H-1-benzopyran-2-one]: the inhibition in vivo at 10 mg/kg under setting [1] is 23.5% and the inhibition in vivo at 10 mg/kg under setting [2] was 64.1%.
Consider `CCCCCCOc1c(O)c2c(OCCC(O)CO)cccc2oc1=O` (stereo not drawn) [Compound (53), 3-hexyloxy-4-hydroxy-5-(3,4-dihydroxybutoxy)-2H-1-benzopyran-2-one], for which the inhibition in vivo at 10 mg/kg came to 19.3% under setting [1] and 59.8% under setting [2].
The like results for `CCCCCCC=COc1c(O)c2cc(OCCCCC(=O)O)ccc2oc1=O` [Compound (202), 3-(1-octenyloxy)-4-hydroxy-6-(4-hydroxycarbonylbutoxy)-2H-1-benzopyran-2-one] were, in that order, 19.9% and 57.8%.
For `CCCCCCCCCCOc1cccc2c(OCCCC)c(O)c(=O)oc12` [Comparative Compound (3), 3-hydroxy-4-butoxy-8-decyloxy-2H-1-benzopyran-2-one, reference compound], in that order: 5.2% and 24.3%.
Turning to `CCCCCCOc1c(O)c2ccc(OCC(=O)O)cc2oc1=O` [Compound (267), 3-hexyloxy-4-hydroxy-7-hydroxycarbonylmethoxy-2H-1-benzopyran-2-one], the inhibition in vivo at 10 mg/kg reads like this: under setting [1], 14%; under setting [2], 62.2%.
For `COc1ccc2c(O)c(O)c(=O)oc2c1` [Comparative Compound (1), 3,4-dihydroxy-7-methoxy-2H-1-benzopyran-2-one, reference compound], in that order: 5.7% and 21.9%.
Consider `CCCCCCCCOc1c(O)c2c(OCCO)cccc2oc1=O` [Compound (14), 3-octyloxy-4-hydroxy-5-(2-hydroxyethoxy)-2H-1-benzopyran-2-one], for which the inhibition in vivo at 10 mg/kg reads like this: under setting [1], 32.4%; under setting [2], 65.5%.
`CCCCCCOc1c(O)c2ccc(OCCC(=O)O)cc2oc1=O` [Compound (288), 3-hexyloxy-4-hydroxy-7-(2-hydroxycarbonylethoxy)-2H-1-benzopyran-2-one]: the inhibition in vivo at 10 mg/kg was found to be 13.4% under setting [1] and 59.1% under setting [2].
`CCCCCCOc1c(O)c2cccc(OCC(=O)O)c2oc1=O` [Compound (368), 3-hexyloxy-4-hydroxy-8-hydroxycarbonylmethoxy-2H-1-benzopyran-2-one]: the inhibition in vivo at 10 mg/kg under setting [1] came out at 24.8% and the inhibition in vivo at 10 mg/kg under setting [2] stood at 60%.
As for `CCCCCCOc1c(O)c2cccc(OCCO)c2oc1=O` [Compound (311), 3-hexyloxy-4-hydroxy-8-(2-hydroxyethoxy)-2H-1-benzopyran-2-one], the inhibition in vivo at 10 mg/kg is, setting by setting: under setting [1], 11.9%; under setting [2], 55.4%.
For `CCCCCCCCOc1c(O)c2ccc(OCCO)cc2oc1=O` [Compound (216), 3-octyloxy-4-hydroxy-7-(2-hydroxyethoxy)-2H-1-benzopyran-2-one], in that order: 38.8% and 72.5%.
Consider `CCCCCCCCOc1c(O)c2cccc(OCCC(=O)O)c2oc1=O` [Compound (390), 3-octyloxy-4-hydroxy-8-(2-hydroxycarbonylethoxy)-2H-1-benzopyran-2-one], for which the inhibition in vivo at 10 mg/kg is, setting by setting: under setting [1], 29.7%; under setting [2], 61.1%.
For `CCCCCCCCOc1c(O)c2cc(OCCO)ccc2oc1=O` [Compound (115), 3-octyloxy-4-hydroxy-6-(2-hydroxyethoxy)-2H-1-benzopyran-2-one], in that order: 31.8% and 61.7%.
For `CC(C)=CCC/C(C)=C/COc1c(O)c2ccc(OCCO)cc2oc1=O` [Compound (226), 3-geranyloxy-4-hydroxy-7-(2-hydroxyethoxy)-2H-1-benzopyran-2-one], in that order: 22.8% and 61.5%.
For `CCCCCCOc1c(O)c2c(OCCO)cccc2oc1=O` [Compound (8), 3-hexyloxy-4-hydroxy-5-(2-hydroxyethoxy)-2H-1-benzopyran-2-one], in that order: 14.1% and 58.2%.
`CCCCCCOc1c(O)c2c(OCCCO)cccc2oc1=O` [Compound (29), 3-hexyloxy-4-hydroxy-5-(3-hydroxypropyloxy)-2H-1-benzopyran-2-one]: the inhibition in vivo at 10 mg/kg was 15.8% under setting [1] and 60.9% under setting [2].
For `CCCCOc1c(O)c2ccc(OCCO)cc2oc1=O` [Compound (207), 3-butoxy-4-hydroxy-7-(2-hydroxyethoxy)-2H-1-benzopyran-2-one], in that order: 8.5% and 71.7%.
Take `CCCCCCOc1c(O)c2c(OCC(=O)O)cccc2oc1=O` [Compound (65), 3-hexyloxy-4-hydroxy-5-hydroxycarbonylmethoxy-2H-1-benzopyran-2-one]: the inhibition in vivo at 10 mg/kg by setting is: under setting [1], 21.5%; under setting [2], 60.2%.
